This is an account of results in ChEMBL document CHEMBL2429731, “Using genetic methods to define the targets of compounds with antimalarial activity” (J Med Chem, 2013).

Structures are written as SMILES.

Experiment [1] deals with Plasmodium berghei. Nature of the experiment: Antimalarial activity against gametocytic stage of Plasmodium berghei infected in blood assessed as inhibition of ookinete formation at 10 uM after 24 hrs by Giemsa staining-based microscopic analysis relative to control. It counts as functional.
Experiment [2] deals with Plasmodium yoelii. Nature of the experiment: Antimalarial activity against sporozoite stage of Plasmodium yoelii assessed as invasion of human HepG2 cells expressing CD81 incubated for 2 hrs prior to inoculation measured after 1 hr by immunofluorescence assay in presence of penicillin/streptomycin. It counts as functional, organism-based.

By inhibition is commonly meant the percentage by which the read-out fell short of the control. What is called IC50 is the concentration needed to halve the response being measured. With `COc1ccc2nc3cc(Cl)ccc3c(Nc3cc(CN4CCCC4)c(O)c(CN4CCCC4)c3)c2n1` [PYRONARIDINE], in experiment [1], the inhibition at 10 µM is less than 50%. The IC50 in experiment [2] was less than 1000 nM.
As to `COc1cc(N[C@H](C)CCCN)c2nccc(C)c2c1Oc1ccc(Cl)c(Cl)c1`, the IC50 in experiment [2] is less than 1000 nM.
Still for that read-out and setting: the figure for `CCc1nc(N)nc(N)c1OCCCOc1ccccc1CCC(=O)O` is less than 1000 nM.
In the case of `CCc1nc(N)nc(N)c1-c1ccc(Cl)cc1` [PYRIMETHAMINE], the inhibition at 10 µM in experiment [1] was less than 50%. Besides, the IC50 in experiment [2] is less than 1000 nM.
As to `COc1cc(NC(C)CCCN)c2ncccc2c1` (configuration not stated) [PRIMAQUINE], the inhibition at 10 µM in experiment [1] was less than 50%. Further, in experiment [2], the IC50 is less than 1000 nM.
Consider `C[C@H]1[C@@H](O)O[C@@H]2O[C@@]3(C)CC[C@H]4[C@H](C)CC[C@@H]1[C@@]24OO3` [ARTENIMOL], for which the IC50 in experiment [2] was less than 1000 nM.
`O=C1C(O)=C([C@H]2CC[C@H](c3ccc(Cl)cc3)CC2)C(=O)c2ccccc21` [ATOVAQUONE]: the inhibition at 10 µM in experiment [1] is less than 50%. Further, the IC50 in experiment [2] was less than 1000 nM.
Take `CN(C)c1ccc2nc3ccc(N(C)C)cc3[s+]c2c1` [METHYLENE BLUE ANHYDROUS]: the inhibition at 10 µM in experiment [1] is less than 50%. In addition, the IC50 in experiment [2] was less than 1000 nM.
On to `CO[C@H]1O[C@@H]2O[C@@]3(C)CC[C@H]4[C@H](C)CC[C@@H]([C@H]1C)[C@@]24OO3` [ARTEMETHER], for which the IC50 in experiment [2] was less than 1000 nM.
With `C=C[C@H]1CN2CC[C@H]1C[C@H]2[C@H](O)c1ccnc2ccc(OC)cc12` [QUININE], the inhibition at 10 µM in experiment [1] was less than 50%.
`COc1cc(C)c2c(Oc3cccc(C(F)(F)F)c3)c(OC)cc(NC(C)CCCN)c2n1` (configuration not stated) [TAFENOQUINE]: the IC50 in experiment [2] is less than 1000 nM.
Turning to `C[C@H]1[C@H](OC(=O)CCC(=O)O)O[C@@H]2O[C@@]3(C)CC[C@H]4[C@H](C)CC[C@@H]1[C@@]24OO3` [ARTESUNATE], the IC50 in experiment [2] is less than 1000 nM.
